Results: patent US9408393B2, “Bismuth-thiols as antiseptics for agricultural, industrial and other uses” (Microbion Corporation, priority 2010, dated 2016)
Like-named read-outs stand apart in the source and are kept apart here.

Legend:
[1] = system: S. epidermidis S2400-1 biofilm; assay: Biofilm prevention, BisEDT-antibiotic combinations; type: cell-based, Staphylococcus epidermidis; details: for Δ (0.05 BE), biofilm prevention: 0.05 μg/ml BisEDT
Description: (§1) S. epidermidis grown in TSB+2% glucose in polystyrene plates for 48 h at 37° C. Gatifloxacin (GF), clindamycin (CM), minocycline (MC), gentamicin (GM), vancomycin (VM), cefazolin (CZ), nafcillin (NC), and rifampicin (RP). […]

S. epidermidis biofilm = assay: Biofilm prevention concentration (BPC), BisEDT and antibiotics; type: cell-based, Staphylococcus epidermidis; details: for Fold reduction of BPC in presence of subMIC BisEDT: TSB + 2% glucose, 48 h
Description: as §1

S. epidermidis = assay: Broth dilution MIC/MBC, BT-antibiotic combinations; type: cell-based, Staphylococcus epidermidis; details: for Δ, MIC / Δ (0.05 BE), MIC: 0.05 μg/ml BisEDT; for Δ (0.1 BE), MBC: 0.1 μg/ml BisEDT
Description: Materials & Methods. Susceptibility studies were performed by broth dilution in 96-well tissue culture plates (Nalge Nunc International, Denmark) in accordance with NCCLS protocols (National Committee for Clinical Laboratory Standards. (1997). Methods for Dilution Antimicrobial Susceptibility Tests for Bacteria that Grow Aerobically: Approved Standard M7-A2 and Informational Supplement M100-S10. NCCLS, Wayne, Pa., USA).
Briefly, overnight bacterial cultures were used to prepare 0.5 McFarland standard suspensions, which were further diluted 1:50 (˜2×10^6 cfu/mL) in cation-adjusted Mueller-Hinton broth medium (BBL, Cockeysville, Md., USA). BTs (prepared as described above) and antibiotics were added at incremental concentrations, keeping the final volume constant at 0.2 mL. Cultures were incubated for 24 h at 37° C. and turbidity was assessed by absorption at 630 nm using an ELISA plate reader (Biotek Instruments, Winooski, Vt., USA) according to the manufacturer's recommendations. […] Viable bacterial counts (cfu/mL) were determined by standard plating on nutrient agar.
The checkerboard method was used to assess the activity of antimicrobial combinations. The fractional inhibitory concentration index (FICI) and the fractional bactericidal concentration index (FBCI) were calculated, according to Eliopoulos et al. (Eliopoulos and Moellering, (1996) Antimicrobial combinations. In Antibiotics in Laboratory Medicine (Lorian, V., Ed.), pp. 330-96, Williams and Wilkins, Baltimore, Md., USA). Synergy was defined as an FICI or FBCI index of […], no interaction at >0.5-4 and antagonism at >4 (Odds, F C (2003) Synergy, antagonism, and what the chequerboard puts between them. Journal of Antimicrobial Chemotherapy 52:1). Synergy was also defined conventionally as ≧4-fold decrease in antibiotic concentration.

MRSA clinical isolates [2] = details: cited from earlier work; for MIC Standards, R (resistance): Standard MIC breakpoint for resistance; for MIC Standards, S (antibiotic sensitivity): Standard MIC breakpoint for sensitivity
MRSA clinical isolates [3] = assay: Broth dilution MIC in BHIG/X medium with subMIC BisEDT; type: cell-based, Staphylococcus aureus; details: Staphylococcus aureus, MRSA, 12 MRSA clinical isolates, BHIG/X, mean ± SD
Description: (§2) Broth dilution antimicrobial susceptibility studies were performed against 12 MRSA strains using several antibiotics combined with subMIC levels of BisEDT (Table 18). Both the biofilm-prevention concentration (BPC) and the minimum inhibitory concentration (MIC) were determined in a special biofilm culture medium (BHIG/X). […] These strains were already sensitive to vancomycin, but were made considerably moreso in the presence of subMIC BisEDT.
In this particular study, the data indicated synergy between BisEDT and cefepime (FIC<0.5), with many of the isolates at the breakpoint for sensitivity.

[4] = system: MRSA clinical isolates biofilm; assay: Biofilm-prevention concentration (BPC) in BHIG/X medium with subMIC BisEDT; type: cell-based, Staphylococcus aureus; details: 12 MRSA clinical isolates, mean ± SD
Description: as §2

[5] = system: Staphylococcus aureus (SA, MRSA); assay: Single-point BisEDT-antibiotic combination FICI; type: cell-based
Pseudomonas aeruginosa = assay: Single-point BisEDT-antibiotic combination FICI; type: cell-based; details: PA 1380
Burkholderia cepacia = assay: Single-point BisEDT-antibiotic combination FICI; type: cell-based; details: Bcep 1756
Escherichia coli = assay: Single-point BisEDT-antibiotic combination FICI; type: cell-based
Bukholderia multivorans = assay: Single-point BisEDT-antibiotic combination FICI; type: cell-based; details: Bmult 5665
[6] = system: Streptococcus pneumoniae (SP, PRSP); assay: Single-point BisEDT-antibiotic combination FICI; details: PRSP 5348
Enterococcus faecalis = assay: Single-point BisEDT-antibiotic combination FICI; type: cell-based; details: E Fc 3121
Acinetobacter baumanii = assay: Single-point BisEDT-antibiotic combination FICI; type: cell-based; details: Abau 2594
Klebsiella pneumoniae = assay: Single-point BisEDT-antibiotic combination FICI; type: cell-based; details: KP 1231
[7] = system: lawn of MRSA (Methicillin-resistant S. aureus); assay: Antibiotic-soaked discs on bacterial lawn with and without BisEDT; type: cell-based, Staphylococcus aureus; details: antibiotic discs combined with BisEDT 0.05 μg/ml
Description: FIGS. 4A and 4B show the subinhibitory BisEDT reversing antibiotic-resistance to several antibiotics. Effects of antibiotics with and without BisEDT (0.05 μg/ml) on a lawn of MRSA (Methicillin-resistant S. aureus) is shown. […] [GM=gentamicin, CZ=cefazolin, FEP=cefepime, IPM=imipenim, SAM=ampicillin/sulbactam, LVX=levofloxacin.

[8] = S. epidermidis ATCC 35984, BisEDT 0.0 μg/ml
[9] = S. epidermidis ATCC 35984, BisEDT 0.05 μg/ml
[10] = S. epidermidis S2400-1, BisEDT 0 μg/ml
[11] = S. epidermidis S2400-1, BisEDT 0.0 μg/ml
[12] = S. epidermidis S2400-1, BisEDT 0.05 μg/ml
[13] = S. epidermidis S2400-1, BisEDT 0.1 μg/ml

Compound | Δ, MIC (S. epidermidis; S. epidermidis ATCC 35984) | MIC (S. epidermidis; [8]) | MIC (S. epidermidis; [9]) | Δ (0.05 BE), MIC (S. epidermidis; S. epidermidis S2400-1) | MIC (S. epidermidis; [10]) | MIC (S. epidermidis; [12]) | MIC (S. epidermidis; [13]) | Δ (0.05 BE), biofilm prevention [1] | Biofilm Prevention (antibiotic concentration) ([1]; BisEDT 0 μg/ml) | Biofilm Prevention (antibiotic concentration) ([1]; BisEDT 0.05 μg/ml) | Biofilm Prevention (antibiotic concentration) ([1]; BisEDT 0.1 μg/ml) | Fold reduction of BPC in presence of subMIC BisEDT (S. epidermidis biofilm) | Δ (0.1 BE), MBC (S. epidermidis; S. epidermidis S2400-1) | MBC (S. epidermidis; [11]) | MBC (S. epidermidis; [13]) | MIC Standards, R (resistance) (MRSA clinical isolates [2]) | MIC Standards, S (antibiotic sensitivity) (MRSA clinical isolates [2]) | BPC ([4]; BisEDT 0 μg/mL) | BPC ([4]; BisEDT 0.025 μg/mL) | BPC ([4]; BisEDT 0.05 μg/mL) | also measured
CCC[C@@H]1C[C@@H](C(=O)N[C@@H]([C@H]2O[C@H](SC)[C@H](O)[C@@H](O)[C@H]2O)[C@H](C)Cl)N(C)C1 [Clindamycin, clindamycin] | 2 | 2048.00 mg/L | 1024.00 mg/L | 2.67 | 2048 mg/L | 768 mg/L | 24 mg/L | 24.9 | 1195 µg/mL | 48 µg/mL | 12 µg/mL | 50 fold | 2.67 | 2048 mg/L | 768 mg/L | – | – | – | – | – | –
CN[C@H](CC(C)C)C(=O)N[C@H]1C(=O)N[C@@H](CC(N)=O)C(=O)N[C@H]2C(=O)N[C@H]3C(=O)N[C@H](C(=O)N[C@H](C(=O)O)c4cc(O)cc(O)c4-c4cc3ccc4O)[C@H](O)c3ccc(c(Cl)c3)Oc3cc2cc(c3O[C@@H]2O[C@H](CO)[C@@H](O)[C@H](O)[C@H]2O[C@H]2C[C@](C)(N)[C@H](O)[C@H](C)O2)Oc2ccc(cc2Cl)[C@H]1O [Vancomycin, vancomycin] | – | – | – | 1.40 | 3.2 mg/L | 2.3 mg/L | 0.3 mg/L | 3.6 | 3.2 µg/mL | 0.9 µg/mL | 0.1 µg/mL | – | 3.86 | 5.4 mg/L | 1.4 mg/L | ≧32 μg/ml | ≦4 μg/ml | 2.5 ± 1.7 µg/mL | 1.5 ± 0.6 µg/mL | 1.3 ± 0.5 µg/mL | Change of biofilm prevention concentration (BPC) (S. epidermidis biofilm; 0.05 μg/ml BisEDT): modest decreases; MIC (MRSA clinical isolates [3]; BisEDT 0 μg/mL): 2.5 ± 1.7 mg/L; MIC (MRSA clinical isolates [3]; BisEDT 0.025 μg/mL): 2.5 ± 1.7 mg/L; MIC (MRSA clinical isolates [3]; BisEDT 0.05 μg/mL): 1.5 ± 0.6 mg/L; MIC (MRSA clinical isolates [3]; BisEDT 0.1 μg/mL): 1.3 ± 0.5 mg/L; Synergy, MBC (S. epidermidis; S. epidermidis S2400-1): borderline; BPC ([4]; BisEDT 0.1 μg/mL): 0.7 ± 0.4 µg/mL
Cc1cc(NS(=O)(=O)c2ccc(N)cc2)no1 [sulphamethoxazole] | – | – | – | – | – | – | – | – | – | – | – | – | – | – | – | – | – | – | – | – | Antibiotic action on MRSA lawn with subMIC BisEDT [7]: enhanced antibiotic action

The next lines start with results.

Δ, MIC (S. epidermidis; S. epidermidis ATCC 35984) | MIC (S. epidermidis; [8]) | MIC (S. epidermidis; [9]) | Δ (0.05 BE), MIC (S. epidermidis; S. epidermidis S2400-1) | MIC (S. epidermidis; [10]) | MIC (S. epidermidis; [12]) | MIC (S. epidermidis; [13]) | Compound | Δ (0.05 BE), biofilm prevention [1] | Biofilm Prevention (antibiotic concentration) ([1]; BisEDT 0 μg/ml) | Biofilm Prevention (antibiotic concentration) ([1]; BisEDT 0.05 μg/ml) | Biofilm Prevention (antibiotic concentration) ([1]; BisEDT 0.1 μg/ml) | Fold reduction of BPC in presence of subMIC BisEDT (S. epidermidis biofilm) | Δ (0.1 BE), MBC (S. epidermidis; S. epidermidis S2400-1) | MBC (S. epidermidis; [11]) | MBC (S. epidermidis; [13]) | MIC Standards, R (resistance) (MRSA clinical isolates [2]) | MIC Standards, S (antibiotic sensitivity) (MRSA clinical isolates [2]) | BPC ([4]; BisEDT 0 μg/mL) | BPC ([4]; BisEDT 0.025 μg/mL) | BPC ([4]; BisEDT 0.05 μg/mL) | also measured
– | – | – | 2.13 | 1.7 mg/L | 0.8 mg/L | 0.3 mg/L | COc1c(N2CCNC(C)C2)c(F)cc2c(=O)c(C(=O)O)cn(C3CC3)c12 (centres unmarked) [Gatifloxacin, gatifloxacin] | 16.0 | 1.6 µg/mL | 0.1 µg/mL | 0.1 µg/mL | 10 fold | 2.00 | 2.8 mg/L | 1.4 mg/L | ≧8 μg/ml | ≦2 μg/ml | 3.6 ± 2.6 µg/mL | 2.6 ± 0.9 µg/mL | 2.4 ± 1.1 µg/mL | MIC (MRSA clinical isolates [3]; BisEDT 0 μg/mL, read-out: MIC): 3.6 ± 2.6 mg/L; MIC (MRSA clinical isolates [3]; BisEDT 0.025 μg/mL, read-out: MIC): 4 ± 2.8 mg/L; MIC (MRSA clinical isolates [3]; BisEDT 0.05 μg/mL, read-out: MIC): 4 ± 2.8 mg/L; MIC (MRSA clinical isolates [3]; BisEDT 0.1 μg/mL, read-out: MIC): 2.4 ± 1.1 mg/L; BPC ([4]; BisEDT 0.1 μg/mL): 0.9 ± 0.8 µg/mL
3.3 | 0.13 mg/L | 0.04 mg/L | 2.63 | 1.13 mg/L | 0.43 mg/L | 0.10 mg/L | CN(C)c1ccc(O)c2c1C[C@H]1C[C@H]3[C@H](N(C)C)C(O)=C(C(N)=O)C(=O)[C@@]3(O)C(O)=C1C2=O [Minocycline, minocycline] | 1.2 | 0.85 µg/mL | 0.73 µg/mL | 0.08 µg/mL | – | 1.00 | 1.20 mg/L | 1.20 mg/L | – | – | – | – | – | FICI, single-point BisEDT-antibiotic combination ([5]; MRSA 773): 1.23; FICI, single-point BisEDT-antibiotic combination ([5]; SA 100): 1.09; FICI, single-point BisEDT-antibiotic combination (Pseudomonas aeruginosa): 0.99; FICI, single-point BisEDT-antibiotic combination (Burkholderia cepacia): 2.23; FICI, single-point BisEDT-antibiotic combination (Escherichia coli; EC 102): 1.37; FICI, single-point BisEDT-antibiotic combination (Escherichia coli; EC 2232): 1.04; FICI, single-point BisEDT-antibiotic combination (Bukholderia multivorans): 1.12; FICI, single-point BisEDT-antibiotic combination [6]: 0.46; FICI, single-point BisEDT-antibiotic combination (Enterococcus faecalis): 1.11; FICI, single-point BisEDT-antibiotic combination (Acinetobacter baumanii): 1.29; FICI, single-point BisEDT-antibiotic combination (Klebsiella pneumoniae): 1.29
